The values below come from PubChem BioAssay (NCI).

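48-hour exposure; five concentrations; linearly interpolated endpoints. GI50: concentration for 50% inhibition of growth. The concentration for full growth arrest is given as TGI.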

Test systems include T-47D breast; SR leukemia; COLO 205 colon; LOX IMVI melanoma; CAKI-1 renal; HCT-15 colon; DU-145 prostate; A498 renal; MDA-MB-231 breast; HL-60(TB) leukemia.
Holding throughout (test): growth of human tumour cells (NCI), 48 h

Take `c1cc(CCN2CCCCC2)ccn1`: the TGI in the assay on T-47D breast, in the assay on SR leukemia, with COLO 205 colon, in the assay on LOX IMVI melanoma, in the assay on CAKI-1 renal and in the assay on HCT-15 colon was above 100 µM each time. The TGI with DU-145 prostate, in the assay on A498 renal and in the assay on MDA-MB-231 breast was above 100 µM each time.
`N#Cc1c(N)nc(N2CCOCC2)c(C#N)c1-c1ccc(Cl)cc1`: the GI50 is 16.1 µM with T-47D breast; 48.5 µM in the assay on COLO 205 colon; 29.2 µM with LOX IMVI melanoma; 26 µM with CAKI-1 renal; 26.9 µM with HCT-15 colon; 75 µM with DU-145 prostate. Besides, the GI50 was 8.11 µM in the assay with A498 renal and 17.5 µM in the assay on MDA-MB-231 breast. The TGI is above 100 µM in the assay on T-47D breast; above 100 µM in the assay on COLO 205 colon; above 100 µM in the assay on LOX IMVI melanoma; 97.1 µM in the assay on CAKI-1 renal; above 100 µM with HCT-15 colon; above 100 µM with DU-145 prostate. Also, the TGI in the assay on A498 renal is 36.3 µM; in the assay with MDA-MB-231 breast, 90.9 µM.
Take `NC(=O)c1oc([N+](=O)[O-])c(-c2ccccc2)c1-c1ccccc1`: the TGI with T-47D breast came to 50.3 µM; in the assay with SR leukemia it was 34.2 µM; in the assay on COLO 205 colon, 42.1 µM; in the assay with LOX IMVI melanoma, 29.1 µM; in the assay on CAKI-1 renal it was 48.1 µM; with HCT-15 colon, 35.4 µM. Also, the TGI in the assay with DU-145 prostate was found to be 93.4 µM; with HL-60(TB) leukemia, 70 µM; in the assay on MDA-MB-231 breast, 38.6 µM.
As for `Cn1ccc2c(c1=O)C(=O)c1nccc3c1c-2nc1ccccc13`, the GI50 was 1.8 µM in the assay with T-47D breast; 1.57 µM in the assay on COLO 205 colon; 1.4 µM in the assay on LOX IMVI melanoma; 1.44 µM in the assay with CAKI-1 renal; 1.56 µM in the assay with HCT-15 colon; 12.5 µM in the assay on A498 renal. Moreover, the values for the GI50 in the assay on HL-60(TB) leukemia and in the assay on MDA-MB-231 breast were 2.21 µM and 1.64 µM, respectively. For the same molecule, the TGI in the assay on T-47D breast was found to be 3.74 µM; with COLO 205 colon, 2.96 µM; in the assay with LOX IMVI melanoma, 2.81 µM; in the assay on CAKI-1 renal, 2.85 µM; in the assay on HCT-15 colon it was 3.46 µM; in the assay on A498 renal it was 25.9 µM. In addition, the TGI turned out to be 5.03 µM in the assay with HL-60(TB) leukemia and 3.13 µM in the assay with MDA-MB-231 breast.
On to `C=C1CC2(C[C@@H](c3ccccc3)O[C@@H](c3ccccc3)C2)OC1=O` (stereo partly drawn), for which the TGI with T-47D breast amounted to 3.68 µM; with COLO 205 colon, 4.45 µM; in the assay with LOX IMVI melanoma it was 2.84 µM; with CAKI-1 renal, 4.53 µM; with HCT-15 colon, 5.91 µM; in the assay on DU-145 prostate it was 21.4 µM. The TGI in the assay with A498 renal came out at 23.5 µM; in the assay with HL-60(TB) leukemia it was 2.84 µM; in the assay with MDA-MB-231 breast it was 4.58 µM.
Regarding `CN(c1ccc(NC(=O)Nc2ccc(OC(F)(F)F)cc2)cc1)c1ccnc(Nc2cccc(S(N)(=O)=O)c2)n1`, the GI50 was 3.51 µM in the assay with T-47D breast; 0.317 µM with COLO 205 colon; 0.725 µM with LOX IMVI melanoma; 6.45 µM with CAKI-1 renal; 5.34 µM in the assay with HCT-15 colon; 3.26 µM in the assay with DU-145 prostate. Besides, the GI50 in the assay on A498 renal is 1.15 µM; in the assay on HL-60(TB) leukemia, 2.7 µM; with MDA-MB-231 breast, 4.92 µM. In addition, the TGI in the assay with T-47D breast worked out at 9.35 µM; in the assay with COLO 205 colon it was 3.5 µM; in the assay with LOX IMVI melanoma, 3.97 µM; in the assay with CAKI-1 renal, 20.8 µM; in the assay with HCT-15 colon, 15.3 µM; with DU-145 prostate, 6.46 µM. For the same molecule, the TGI in the assay with A498 renal was determined as 3.37 µM; in the assay on HL-60(TB) leukemia, 6.36 µM; in the assay on MDA-MB-231 breast, 15.1 µM.
For the molecule `O=C(CCCCCCSc1nc(-c2ccccc2)cc(-c2ccccc2)n1)NO`, the GI50 with T-47D breast was 1.86 µM; in the assay with SR leukemia, 0.322 µM; in the assay on COLO 205 colon, 2.67 µM; in the assay with LOX IMVI melanoma it was 1.86 µM; in the assay on CAKI-1 renal it was 1.56 µM; in the assay with HCT-15 colon it was 2.29 µM. Besides, the GI50 in the assay on DU-145 prostate was 2.44 µM; in the assay with A498 renal it was 1.69 µM; in the assay with MDA-MB-231 breast it was 2.54 µM. Moreover, the TGI amounted to 8.21 µM in the assay on T-47D breast; 3.87 µM with SR leukemia; 10.7 µM with COLO 205 colon; 3.84 µM in the assay with LOX IMVI melanoma; 6.39 µM in the assay on CAKI-1 renal; 10.6 µM in the assay on HCT-15 colon. Also, the TGI in the assay with DU-145 prostate was 10.6 µM; with A498 renal, 4.05 µM; in the assay with MDA-MB-231 breast, 7.62 µM.
For the molecule `CC(C)[C@@]12C[C@@H](OC(=O)COC(=O)/C=C/c3ccccc3)[C@@](C)(O1)[C@@H]1CC[C@@H](C)[C@H]1[C@@H]2OC(=O)/C=C/c1ccccc1`, the GI50 in the assay on T-47D breast was above 100 µM; in the assay with COLO 205 colon, above 100 µM; with LOX IMVI melanoma it was above 100 µM; with CAKI-1 renal, 0.0813 µM; in the assay with HCT-15 colon, above 100 µM; in the assay with DU-145 prostate it was above 100 µM. The GI50 in the assay with A498 renal is below 0.0441 µM; in the assay on HL-60(TB) leukemia it was above 92.2 µM; in the assay with MDA-MB-231 breast, above 100 µM. Also, the TGI with T-47D breast was above 100 µM; in the assay with COLO 205 colon it was above 100 µM; in the assay on LOX IMVI melanoma, above 100 µM; in the assay with HCT-15 colon it was above 100 µM; in the assay on DU-145 prostate, above 100 µM; in the assay with A498 renal, 0.401 µM. The TGI in the assay with HL-60(TB) leukemia and in the assay with MDA-MB-231 breast was above 100 µM in each case.
Consider `O=C1Nc2ccccc2C1Cc1ccc([N+](=O)[O-])cc1` (stereo not drawn), for which the TGI with T-47D breast, in the assay on SR leukemia, in the assay with COLO 205 colon, in the assay with LOX IMVI melanoma, with CAKI-1 renal and with HCT-15 colon was above 100 µM each time. For the same molecule, the TGI in the assay on DU-145 prostate, with HL-60(TB) leukemia and in the assay with MDA-MB-231 breast was above 100 µM each time.
On to `N#Cc1cccc(C(=O)Nc2cccc(NC(=O)c3cccc(C#N)c3)c2)c1`, for which the GI50 is above 100 µM in the assay with T-47D breast; above 100 µM in the assay on COLO 205 colon; 6.95 µM in the assay on CAKI-1 renal; 73.9 µM in the assay on HCT-15 colon; 66.6 µM in the assay on DU-145 prostate; 75.9 µM with MDA-MB-231 breast. The TGI in the assay on T-47D breast, in the assay with COLO 205 colon, in the assay with CAKI-1 renal, with HCT-15 colon, in the assay on DU-145 prostate and with MDA-MB-231 breast was above 100 µM each time.
